Read-outs that look alike come from different tables or passages of the source.
Experiments:
[1] = tested on: MYC protein expression in MCF-7 breast cancer cells; test: Western blotting of MYC protein level in MCF-7 cells; format: cell-based, human; conditions: MCF-7, 0.5, 1, 2, and 4 μM, 24 h
Method in brief: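 MCF-7 cells were exposed to compounds at 0.5, 1, 2 and 4 μM for 24 hours at 37° C. MYC was detected by immunoblot with ECL, using rabbit anti-MYC (1:1000) and anti-GAPDH (1:2000) as loading control.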

NCI-60 cancer cell lines = test: NCI-60 cancer cell line drug screen (GI50, MGM); format: cell-based, human; conditions: Homo sapiens; for GI50: read-out: Antiproliferative Activities [GI50 (μM)]
Experimental: Cancer cells were incubated with the test compounds at five concentrations ranging from 100 μM to 10 nM for 48 h. […] The approximate average of GI50 values across the entire panel of NCI-60 cancer cell lines for each compound was recorded as the MGM value.

human topoisomerase I = target: T1, human topoisomerase I (Homo sapiens, UniProt P11387); conditions: relative topoisomerase I inhibition levels, previously determined, six levels (0 - 5, +++++ = 5); cited from earlier work
T1 sequence (P11387 1-765): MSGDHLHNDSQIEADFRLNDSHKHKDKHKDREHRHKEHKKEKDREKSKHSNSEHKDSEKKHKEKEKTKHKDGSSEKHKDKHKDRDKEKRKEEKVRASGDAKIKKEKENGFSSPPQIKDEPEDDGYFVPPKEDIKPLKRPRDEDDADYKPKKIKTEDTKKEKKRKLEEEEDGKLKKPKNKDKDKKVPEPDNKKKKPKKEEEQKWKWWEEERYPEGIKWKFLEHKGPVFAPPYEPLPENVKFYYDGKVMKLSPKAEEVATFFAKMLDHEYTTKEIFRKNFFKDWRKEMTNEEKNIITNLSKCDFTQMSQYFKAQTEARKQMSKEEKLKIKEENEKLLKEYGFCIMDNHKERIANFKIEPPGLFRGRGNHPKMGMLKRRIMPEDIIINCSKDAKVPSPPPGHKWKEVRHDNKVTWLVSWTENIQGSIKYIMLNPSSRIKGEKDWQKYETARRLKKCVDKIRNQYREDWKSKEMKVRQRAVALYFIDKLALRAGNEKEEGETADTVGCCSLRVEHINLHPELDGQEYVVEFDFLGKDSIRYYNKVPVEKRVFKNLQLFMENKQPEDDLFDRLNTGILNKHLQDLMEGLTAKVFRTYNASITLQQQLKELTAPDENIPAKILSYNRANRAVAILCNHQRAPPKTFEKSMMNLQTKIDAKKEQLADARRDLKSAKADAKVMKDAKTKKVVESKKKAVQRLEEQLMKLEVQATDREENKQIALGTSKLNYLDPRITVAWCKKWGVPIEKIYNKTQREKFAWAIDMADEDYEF

SMILES: COc1cnc2c(c1)C(=O)c1c-2n(CCCN2CCCC2)c(=O)c2cc([N+](=O)[O-])ccc12 [Compound 9]
- MYC-inhibitory effect (MYC protein, western blot) [1]: clear MYC-inhibitory effect
- GI50 (NCI-60 cancer cell lines; 786-0, Renal Cancer, 786-0): 0.03 µM
- GI50 (NCI-60 cancer cell lines; A549, Non-Small Cell Lung Cancer, A549/ATCC): 0.05 µM
- GI50 (NCI-60 cancer cell lines; ACHN, Renal Cancer, ACHN): < 0.01 µM
- GI50 (NCI-60 cancer cell lines; BT-549, Breast Cancer, BT-549): 0.35 µM
- GI50 (NCI-60 cancer cell lines; CAKI-1, Renal Cancer, CAKI-1): < 0.01 µM
- GI50 (NCI-60 cancer cell lines; CCRF-CEM, Leukemia, CCRF-CEM): < 0.01 µM
- GI50 (NCI-60 cancer cell lines; COLO 205, Colon Cancer, COLO 205): 0.04 µM
- GI50 (NCI-60 cancer cell lines; DU-145, Prostate Cancer, DU-145): 0.02 µM
- GI50 (NCI-60 cancer cell lines; EKVX, Non-Small Cell Lung Cancer, EKVX): 0.3 µM
- GI50 (NCI-60 cancer cell lines; HCC 2998, Colon Cancer, HCC-2998): 0.16 µM
- GI50 (NCI-60 cancer cell lines; HCT-15, Colon Cancer, HCT-15): 0.06 µM
- GI50 (NCI-60 cancer cell lines; HCT-116, Colon Cancer, HCT-116): < 0.01 µM
- GI50 (NCI-60 cancer cell lines; HL-60, Leukemia, HL-60(TB)): 0.03 µM
- GI50 (NCI-60 cancer cell lines; HOP-62, Non-Small Cell Lung Cancer, HOP-62): < 0.01 µM
- GI50 (NCI-60 cancer cell lines; HOP-92, Non-Small Cell Lung Cancer, HOP-92): 0.55 µM
- GI50 (NCI-60 cancer cell lines; HT-29, Colon Cancer, HT29): 0.02 µM
- GI50 (NCI-60 cancer cell lines; Hs-578T, Breast Cancer, HS 578T): 1.91 µM
- GI50 (NCI-60 cancer cell lines; IGROV-1, Ovarian Cancer, IGROV1): 0.02 µM
- GI50 (NCI-60 cancer cell lines; K562, Leukemia, K-562): 0.02 µM
- GI50 (NCI-60 cancer cell lines; KM12, Colon Cancer, KM12): 0.14 µM
- GI50 (NCI-60 cancer cell lines; LOX IMVI, Melanoma, LOX IMVI): < 0.01 µM
- GI50 (NCI-60 cancer cell lines; Leukemia, SR): < 0.01 µM
- GI50 (NCI-60 cancer cell lines; MCF7, Breast Cancer, MCF7): < 0.01 µM
- GI50 (NCI-60 cancer cell lines; MDA-MB-231, Breast Cancer, MDA-MB-231/ATCC): 0.68 µM
- GI50 (NCI-60 cancer cell lines; MDA-MB-435, Melanoma, MDA-MB-435): 0.06 µM
- GI50 (NCI-60 cancer cell lines; MDA-MB-468, Breast Cancer, MDA-MB-468): 0.03 µM
- GI50 (NCI-60 cancer cell lines; MOLT-4, Leukemia, MOLT-4): < 0.01 µM
- GI50 (NCI-60 cancer cell lines; Malme-3M, Melanoma, MALME-3M): 0.06 µM
- GI50 (NCI-60 cancer cell lines; Melanoma, M14): < 0.01 µM
- GI50 (NCI-60 cancer cell lines; NCI-H23, Non-Small Cell Lung Cancer, NCI-H23): 0.03 µM
- GI50 (NCI-60 cancer cell lines; NCI-H226, Non-Small Cell Lung Cancer, NCI-H226): 0.1 µM
- GI50 (NCI-60 cancer cell lines; NCI-H322M, Non-Small Cell Lung Cancer, NCI-H322M): 0.05 µM
- GI50 (NCI-60 cancer cell lines; NCI-H460, Non-Small Cell Lung Cancer, NCI-H460): < 0.01 µM
- GI50 (NCI-60 cancer cell lines; NCI-H522, Non-Small Cell Lung Cancer, NCI-H522): 0.06 µM
- GI50 (NCI-60 cancer cell lines; OVCAR-3, Ovarian Cancer, OVCAR-3): 0.06 µM
- GI50 (NCI-60 cancer cell lines; OVCAR-4, Ovarian Cancer, OVCAR-4): 0.08 µM
- GI50 (NCI-60 cancer cell lines; OVCAR-5, Ovarian Cancer, OVCAR-5): 0.16 µM
- GI50 (NCI-60 cancer cell lines; OVCAR-8, Ovarian Cancer, OVCAR-8): 0.09 µM
- GI50 (NCI-60 cancer cell lines; Ovarian Cancer, NCl/ADR-RES): 0.03 µM
- GI50 (NCI-60 cancer cell lines; Prostate Cancer, PC-3): 0.07 µM
- GI50 (NCI-60 cancer cell lines; RPMI-8226, Leukemia, RPMI-8226): 0.04 µM
- GI50 (NCI-60 cancer cell lines; RXF 393, Renal Cancer, RXF 393): 0.06 µM
- GI50 (NCI-60 cancer cell lines; Renal Cancer, U0-31): < 0.01 µM
- GI50 (NCI-60 cancer cell lines; SF-268, CNS Cancer, SF-268): 0.02 µM
- GI50 (NCI-60 cancer cell lines; SF-295, CNS Cancer, SF-295): < 0.01 µM
- GI50 (NCI-60 cancer cell lines; SF-539, CNS Cancer, SF-539): 0.03 µM
- GI50 (NCI-60 cancer cell lines; SK-MEL-2, Melanoma, SK-MEL-2): 1.01 µM
- GI50 (NCI-60 cancer cell lines; SK-MEL-5, Melanoma, SK-MEL-5): 0.07 µM
- GI50 (NCI-60 cancer cell lines; SK-MEL-28, Melanoma, SK-MEL-28): 10.6 µM
- GI50 (NCI-60 cancer cell lines; SK-OV-3, Ovarian Cancer, SK-OV-3): 0.03 µM
- GI50 (NCI-60 cancer cell lines; SN12C, Renal Cancer, SN12C): 0.04 µM
- GI50 (NCI-60 cancer cell lines; SNB-19, CNS Cancer, SNB-19): 0.04 µM
- GI50 (NCI-60 cancer cell lines; SNB-75, CNS Cancer, SNB-75): 0.05 µM
- GI50 (NCI-60 cancer cell lines; SW-620, Colon Cancer, SW-620): < 0.01 µM
- GI50 (NCI-60 cancer cell lines; T47D, Breast Cancer, T-47D): 0.02 µM
- GI50 (NCI-60 cancer cell lines; TK-10, Renal Cancer, TK-10): 0.37 µM
- GI50 (NCI-60 cancer cell lines; U-251, CNS Cancer, U251): 0.01 µM
- GI50 (NCI-60 cancer cell lines; UACC-62, Melanoma, UACC-62): 0.02 µM
- GI50 (NCI-60 cancer cell lines; UACC-257, Melanoma, UACC-257): 0.18 µM
- mean GI50 across NCI-60 panel (MGM) (NCI-60 cancer cell lines; average of GI50 values across the entire panel of NCI-60 cancer cell lines): 45 nM
- Top1 Inhibiton (human topoisomerase I): ++ (medium inhibition, ++, MYC expression inhibited at 2.0 μM, or no clear dose-dependent MYC inhibition)
